In ChEMBL document CHEMBL5050844 (2019):
One block for each compound: values may come before it.

Tests used:
[1] = Induction of anti-CD3/CD28 antibodies-stimulated human T cell activation at 0.3 uM assessed fold increase in IL-2 secretion measured by ELISA assay; assay type: functional, T cell line
[2] = Induction of anti-CD3/CD28 antibodies-stimulated human T cell activation at 1 uM assessed fold increase in IL-2 secretion measured by ELISA assay; assay type: functional, T cell line
[3] = Induction of activation of human CD56+ CD3- NK cells co-cultured with human K562 cells in 1:1 ratio and assessed as increase in IFN-gamma secretion at 10 uM measured by ELISA assay; assay type: functional, Natural killer cell
[4] = Induction of activation of human CD56+ CD3- NK cells co-cultured with human K562 cells in 5:1 ratio and assessed as increase in MIP1beta secretion at 1 uM measured by ELISA assay; assay type: functional, Natural killer cell
[5] = Induction of anti-CD3 antibodies-stimulated human CD8+ T cell activation in immunocompetent mouse assessed fold increase in CD25 expression at 90 mg/kg, ip administered twice a day; assay type: functional; further: reference of the scale not given here
[6] = Induction of anti-CD3 antibodies-stimulated human CD4+ T cell activation in immunocompetent mouse assessed fold increase in CD25 expression at 90 mg/kg, ip administered twice a day; assay type: functional; further: reference of the scale not given here
[7] = Induction of anti-CD3/CD28 antibodies-stimulated human T cell activation at 0.3 uM assessed fold increase in CD25 expression measured by ELISA assay; assay type: functional, T cell line
[8] = Induction of activation of human CD56+ CD3- NK cells co-cultured with human K562 cells in 1:1 ratio and assessed as increase in MIP1beta secretion at 1 uM measured by ELISA assay; assay type: functional, Natural killer cell
[9] = Induction of anti-CD3 antibodies-stimulated human T cell activation at 8 uM assessed fold increase in IL-2 secretion measured by ELISA assay; assay type: functional, T cell line; further: reference of the scale not given here
[10] = Induction of activation of human CD56+ CD3- NK cells co-cultured with human K562 cells in 1:1 ratio and assessed as increase in TNF-alpha secretion at 10 uM measured by ELISA assay; assay type: functional, Natural killer cell
[11] = Induction of activation of human CD56+ CD3- NK cells co-cultured with human K562 cells in 5:1 ratio and assessed as increase in IFN-gamma secretion at 10 uM measured by ELISA assay; assay type: functional, Natural killer cell
[12] = Induction of activation of human CD56+ CD3- NK cells co-cultured with human K562 cells in 5:1 ratio and assessed as increase in TNF-alpha secretion at 10 uM measured by ELISA assay; assay type: functional, Natural killer cell
[13] = Induction of activation of human CD56+ CD3- NK cells co-cultured with human K562 cells in 5:1 ratio and assessed as increase in TNF-alpha secretion at 1 uM measured by ELISA assay; assay type: functional, Natural killer cell
[14] = Induction of anti-CD3/CD28 antibodies-stimulated human T cell activation at 1 uM assessed fold increase in CD25 expression measured by ELISA assay; assay type: functional, T cell line
[15] = Induction of activation of human CD56+ CD3- NK cells co-cultured with human K562 cells in 5:1 ratio and assessed as increase in MIP1beta secretion at 10 uM measured by ELISA assay; assay type: functional, Natural killer cell
[16] = Induction of anti-CD3 antibodies-stimulated human T cell activation at 1 uM assessed fold increase in CD25 expression measured by ELISA assay; assay type: functional, T cell line; further: reference of the scale not given here
[17] = Induction of anti-CD3 antibodies-stimulated human T cell activation at 1 uM assessed fold increase in IL-2 secretion measured by ELISA assay; assay type: functional, T cell line; further: reference of the scale not given here
[18] = Induction of anti-CD3/CD28 antibodies-stimulated human T cell activation at 4 uM assessed fold increase in CD25 expression measured by ELISA assay; assay type: functional, T cell line
[19] = Induction of activation of human CD56+ CD3- NK cells co-cultured with human K562 cells in 5:1 ratio and assessed as increase in IFN-gamma secretion at 1 uM measured by ELISA assay; assay type: functional, Natural killer cell
[20] = Induction of anti-CD3/CD28 antibodies-stimulated human T cell activation at 4 uM assessed fold increase in IL-2 secretion measured by ELISA assay; assay type: functional, T cell line
[21] = Induction of anti-CD3 antibodies-stimulated human T cell activation at 8 uM assessed fold increase in CD25 expression measured by ELISA assay; assay type: functional, T cell line; further: reference of the scale not given here
[22] = Induction of activation of human CD56+ CD3- NK cells co-cultured with human K562 cells in 1:1 ratio and assessed as increase in IFN-gamma secretion at 1 uM measured by ELISA assay; assay type: functional, Natural killer cell
[23] = Induction of activation of human CD56+ CD3- NK cells co-cultured with human K562 cells in 1:1 ratio and assessed as increase in TNF-alpha secretion at 1 uM measured by ELISA assay; assay type: functional, Natural killer cell
[24] = Induction of activation of human CD56+ CD3- NK cells co-cultured with human K562 cells in 1:1 ratio and assessed as increase in MIP1beta secretion at 10 uM measured by ELISA assay; assay type: functional, Natural killer cell
[25] = Induction of anti-CD3 antibodies-stimulated human CD8+ T cell activation in immunocompetent mouse assessed fold increase in CD25 expression at 180 mg/kg, po administered twice a day; assay type: functional; further: reference of the scale not given here
[26] = target: T1, E3 ubiquitin-protein ligase CBL-B (Homo sapiens, UniProt Q13191); assay: Inhibition of N-terminal Avi-tagged human CBL-B (36 to 427 residues) incubated with 60 nM Src kinase for 1.5 hrs followed by incubation with fluorescently labeled UbcH5B-Ub for 1 hr and measured by TR-FRET assay; assay type: single protein
T1 sequence (Q13191 whole entry, the tested form may be a part): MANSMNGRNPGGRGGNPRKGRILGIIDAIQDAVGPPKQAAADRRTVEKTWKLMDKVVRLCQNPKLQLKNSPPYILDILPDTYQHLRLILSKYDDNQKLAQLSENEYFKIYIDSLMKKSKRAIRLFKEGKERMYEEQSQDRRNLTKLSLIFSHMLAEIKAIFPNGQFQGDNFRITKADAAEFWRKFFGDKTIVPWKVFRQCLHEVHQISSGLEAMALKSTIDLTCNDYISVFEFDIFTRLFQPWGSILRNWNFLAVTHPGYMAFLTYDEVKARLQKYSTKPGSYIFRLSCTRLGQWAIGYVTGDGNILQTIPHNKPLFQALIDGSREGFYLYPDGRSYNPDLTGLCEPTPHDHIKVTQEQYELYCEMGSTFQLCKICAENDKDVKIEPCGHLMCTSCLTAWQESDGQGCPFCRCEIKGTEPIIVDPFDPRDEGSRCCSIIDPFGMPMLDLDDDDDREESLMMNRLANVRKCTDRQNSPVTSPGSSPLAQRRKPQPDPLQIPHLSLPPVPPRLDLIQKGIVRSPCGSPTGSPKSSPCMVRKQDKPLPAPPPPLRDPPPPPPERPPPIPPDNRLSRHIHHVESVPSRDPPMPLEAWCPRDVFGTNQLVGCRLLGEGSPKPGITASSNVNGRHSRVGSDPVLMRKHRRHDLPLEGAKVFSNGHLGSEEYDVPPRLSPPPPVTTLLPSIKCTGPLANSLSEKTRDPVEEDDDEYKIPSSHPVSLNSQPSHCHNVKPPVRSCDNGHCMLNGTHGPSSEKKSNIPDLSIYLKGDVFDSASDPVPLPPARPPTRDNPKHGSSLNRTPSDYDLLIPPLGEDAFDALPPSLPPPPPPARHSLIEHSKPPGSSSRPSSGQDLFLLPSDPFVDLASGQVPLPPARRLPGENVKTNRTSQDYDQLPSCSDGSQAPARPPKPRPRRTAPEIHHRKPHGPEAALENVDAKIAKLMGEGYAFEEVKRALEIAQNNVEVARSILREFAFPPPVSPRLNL

[27] = Induction of anti-CD3 antibodies-stimulated human CD8+ T cell activation in immunocompetent mouse assessed fold increase in CD25 expression at 135 mg/kg, po administered twice a day; assay type: functional; further: reference of the scale not given here
[28] = Induction of anti-CD3 antibodies-stimulated human CD4+ T cell activation in immunocompetent mouse assessed fold increase in CD25 expression at 45 mg/kg, ip administered twice a day; assay type: functional; further: reference of the scale not given here
[29] = Induction of anti-CD3 antibodies-stimulated human CD4+ T cell activation in immunocompetent mouse assessed fold increase in CD25 expression at 180 mg/kg, po administered twice a day; assay type: functional; further: reference of the scale not given here
[30] = Induction of anti-CD3 antibodies-stimulated human CD4+ T cell activation in immunocompetent mouse assessed fold increase in CD25 expression at 45 mg/kg, po administered twice a day; assay type: functional; further: reference of the scale not given here
[31] = Induction of anti-CD3 antibodies-stimulated human CD4+ T cell activation in immunocompetent mouse assessed fold increase in CD25 expression at 90 mg/kg, po administered twice a day; assay type: functional; further: reference of the scale not given here
[32] = Induction of anti-CD3 antibodies-stimulated human CD8+ T cell activation in immunocompetent mouse assessed fold increase in CD25 expression at 45 mg/kg, ip administered twice a day; assay type: functional; further: reference of the scale not given here
[33] = Induction of anti-CD3 antibodies-stimulated human CD8+ T cell activation in immunocompetent mouse assessed fold increase in CD25 expression at 90 mg/kg, po administered twice a day; assay type: functional; further: reference of the scale not given here
[34] = Induction of anti-CD3 antibodies-stimulated human CD4+ T cell activation in immunocompetent mouse assessed fold increase in CD25 expression at 135 mg/kg, po administered twice a day; assay type: functional; further: reference of the scale not given here
[35] = target: T1, E3 ubiquitin-protein ligase CBL-B; assay: Binding affinity towards N-terminal biotinylated Avi-tagged human CBL-B (36 to 427 residues) measured by surface plasmon resonance assay
[36] = Induction of allogenic human T cell activation at 10 uM assessed fold increase in cell proliferation; assay type: functional, T cell line
[37] = Induction of activation of human CD56+ CD3- NK cells co-cultured with human K562 cells in 1:1 ratio and assessed as increase in IFN-gamma secretion at 0.625 uM measured by ELISA assay; assay type: functional, Natural killer cell
[38] = Induction of anti-CD3 antibodies-stimulated human exhausted T cell activation assessed fold increase in IFN-gamma secretion measured by ELISA assay; assay type: functional, T cell line; further: reference of the scale not given here
[39] = Induction of anti-CD3/CD28 antibodies-stimulated human anergic T cell activation at 1.11 uM assessed fold increase in IFN-gamma secretion measured by ELISA assay; assay type: functional, T cell line
[40] = Induction of anti-CD3/CD28 antibodies-stimulated human anergic T cell activation at 0.37 uM assessed fold increase in IFN-gamma secretion measured by ELISA assay; assay type: functional, T cell line
[41] = Induction of anti-CD3 antibodies-stimulated human exhausted T cell activation assessed fold increase in IL-2 secretion measured by ELISA assay; assay type: functional, T cell line; further: reference of the scale not given here
[42] = Induction of anti-CD3 antibodies-stimulated human exhausted CD8+ T cell activation assessed fold increase in CTLA4 expression measured by flow cytometry analysis; assay type: functional, T cell line; further: reference of the scale not given here
[43] = Induction of anti-CD3 antibodies-stimulated human exhausted CD4+ T cell activation assessed fold increase in CTLA4 expression measured by flow cytometry analysis; assay type: functional, T cell line; further: reference of the scale not given here
[44] = Induction of activation of human CD56+ CD3- NK cells co-cultured with human K562 cells in 1:1 ratio and assessed as increase in TNF-alpha secretion at 2.5 uM measured by ELISA assay; assay type: functional, Natural killer cell
[45] = Induction of anti-CD3 antibodies-stimulated human CD8+ T cell activation in immunocompetent mouse assessed fold increase in CD25 expression at 90 mg/kg, ip administered thrice a day; assay type: functional; further: reference of the scale not given here
[46] = Induction of anti-CD3 antibodies-stimulated human CD8+ T cell activation in immunocompetent mouse assessed fold increase in CD25 expression at 45 mg/kg, po administered twice a day; assay type: functional; further: reference of the scale not given here
[47] = Induction of activation of human CD56+ CD3- NK cells co-cultured with human K562 cells in 1:1 ratio and assessed as increase in IFN-gamma secretion at 2.5 uM measured by ELISA assay; assay type: functional, Natural killer cell
B cell = assay: Induction of anti-IgM-stimulated human CD20+ B cell activation at 10 to 1000 uM assessed as increase in CD69 expression measured as mean fluorescence intensity AUC by flow cytometry analysis; assay type: functional, cell-based; details: dose 10-1000 µM
[48] = Induction of activation of human CD56+ CD3- NK cells co-cultured with human K562 cells in 1:1 ratio and assessed as increase in TNF-alpha secretion at 0.625 uM measured by ELISA assay; assay type: functional, Natural killer cell
[49] = Induction of anti-CD3/CD28 antibodies-stimulated human anergic T cell activation at 10 uM assessed fold increase in IFN-gamma secretion measured by ELISA assay; assay type: functional, T cell line
[50] = Induction of allogenic human T cell activation at 3 uM assessed fold increase in cell proliferation; assay type: functional, T cell line
[51] = Induction of anti-CD3 antibodies-stimulated human exhausted T cell activation assessed fold increase in GM-CSF secretion measured by ELISA assay; assay type: functional, T cell line; further: reference of the scale not given here

Compound: C[C@H](Cc1nncn1C)c1cccc(NC(=O)c2ccnc(C(F)(F)F)n2)c1
fold change (FC) [1]: 1.01
fold change (FC) [2]: 2.51
fold change (FC) [3]: 2.01
fold change (FC) [4]: 1.01
fold change (FC) [5]: 1
fold change (FC) [6]: 1.51
fold change (FC) [7]: 1.51
fold change (FC) [8]: 1.01
fold change (FC) [9]: >=0.201
fold change (FC) [10]: 2.01
fold change (FC) [11]: >=5
fold change (FC) [12]: >=5
fold change (FC) [13]: 2.01
fold change (FC) [14]: >=1.76
fold change (FC) [15]: 2.01
fold change (FC) [16]: 0.801
fold change (FC) [17]: >=0.201
fold change (FC) [18]: >=1.76
fold change (FC) [19]: 2.01
fold change (FC) [20]: >=7.5
fold change (FC) [21]: >=1.001
fold change (FC) [22]: 1.01
fold change (FC) [23]: <=1
fold change (FC) [24]: 2.01

IC50 [26]: < 100 nM
Kd [35]: < 100 nM
Compound: C[C@H](Cc1nncn1C)c1cccc(NC(=O)c2cc(C3CC3)cc(C(F)(F)F)n2)c1
fold change (FC) [1]: 2.51
fold change (FC) [25]: 1
fold change (FC) [2]: 5
fold change (FC) [3]: 2.01
fold change (FC) [4]: 1.01
fold change (FC) [27]: 1
fold change (FC) [28]: 1.51
fold change (FC) [7]: 1.31
fold change (FC) [8]: 1.01
fold change (FC) [9]: >=0.201
fold change (FC) [10]: 1.01
fold change (FC) [11]: >=5
fold change (FC) [12]: 2.01
fold change (FC) [29]: 1
fold change (FC) [13]: 2.01
fold change (FC) [14]: 1.51
fold change (FC) [15]: 1.01
fold change (FC) [16]: >=1.001
fold change (FC) [30]: 1
fold change (FC) [17]: >=0.201
fold change (FC) [31]: 1
fold change (FC) [18]: 1.51
fold change (FC) [32]: 1
fold change (FC) [33]: 1
fold change (FC) [19]: 2.01
fold change (FC) [20]: >=7.5
fold change (FC) [21]: >=1.001
fold change (FC) [22]: 2.01
fold change (FC) [34]: 2.01
fold change (FC) [23]: 2.01
fold change (FC) [24]: 1.01

IC50 [26]: < 100 nM
Compound: Cn1cnnc1CC1(c2cccc(NC(=O)c3cc(CN4CCC5(CC5)C4)cc(C4CC4)n3)c2)COC1
fold change (FC) [36]: >3
fold change (FC) [1]: >=7.5
fold change (FC) [37]: 2.01
fold change (FC) [38]: >1.61
fold change (FC) [25]: 1.51
fold change (FC) [39]: >4.01
fold change (FC) [40]: >4.01
fold change (FC) [41]: 2.51
fold change (FC) [42]: >1.61
fold change (FC) [43]: >1.61
fold change (FC) [2]: >=7.5
fold change (FC) [44]: 1.01
fold change (FC) [3]: >=5
fold change (FC) [6]: 1.51
fold change (FC) [45]: 1
fold change (FC) [46]: 1
fold change (FC) [27]: 1
fold change (FC) [7]: 1.31
fold change (FC) [47]: >=5
fold change (FC) [10]: >=5
fold change (FC) [29]: >2.5
AUC (B cell): > 1.51
fold change (FC) [14]: 1.31
fold change (FC) [16]: >=1.001
fold change (FC) [17]: >=0.201
fold change (FC) [48]: >=5
fold change (FC) [31]: >2.5
fold change (FC) [49]: >4.01
fold change (FC) [50]: >3
fold change (FC) [51]: >1.61
